Assay results as given in patent publication US20110166162A1, “1,2-Benzisothiazole Compounds Useful for Combating Animal Pests” (priority 2007, published 2011).

How the values were obtained:
Type in all cases: in vivo
[1] = test system: green peach aphid (Myzus persicae); assay: Green peach aphid, pepper plant leaf dip test; conditions: 300 ppm; pepper plants dipped; after 5 days
Source text: II.11 Green Peach Aphid (myzus persicae)
(§1) The active compounds were formulated in 50:50 acetone:water (vol/vol) and 100 ppm Kinetic™ surfactant.
Pepper plants in the 2nd leaf-pair stage (variety “California Wonder”) were infested with approximately 40 laboratory-reared aphids by placing infested leaf sections on top of the test plants. The leaf sections were removed after 24 hr. The leaves of the intact plants were dipped into gradient solutions of the test compound and allowed to dry. Test plants were maintained under fluorescent light (24 hour photoperiod) at about 25° C. and about 20-40% relative humidity. Aphid mortality on the treated plants, relative to mortality on check plants, was determined after 5 days.

adult female rats = assay: Acute oral rat toxicity study, single oral gavage, 14 days observation; conditions: three rats per study, single oral gavage dose 100 mg/kg bw
Method: Some representatives of the compounds according to the present invention have been tested in acute oral rat toxicity studies.
In these studies, test substances were administered to adult female rats by oral gavage for one time. The compounds were administered as a 1% b.w. suspension or the compound in a 1% aqueous carboxymethyl cellulose solution. In each study three rats were used. The animals were treated with a single dose of 100 mg/kg bw. […] After the 14 day observation period, the animals were sacrificed, dissected, and examined for gross pathological lesions.

[2] = test system: silverleaf whitefly (bemisia argentifolii); assay: Silverleaf whitefly, cotton cotyledon dip test; conditions: 300 ppm; cotyledons dipped; 3 days after treatment
Method: II.9 Silverleaf Whitefly (bemisia argentifolii)
as §1
Selected cotton plants were grown to the cotyledon state (one plant per pot). The cotyledons were dipped into the test solution to provide complete coverage of the foliage and placed in a well-vented area to dry. Each pot with treated seedling was placed in a plastic cup and 10 to 12 whitefly adults (approximately 3-5 day old) were introduced. The insects were collected using an aspirator and a Tygon® tubing connected to a barrier pipette tip. The tip containing the collected insects was then gently inserted into the soil containing the treated plant allowing insects to crawl out of the tip to reach the foliage for feeding. The cups were covered with a re-usable screened lid. Test plants were maintained in the holding room at about 25° C. and about 20-40% relative humidity for 3 days avoiding direct exposure to the fluorescent light (24 hour photoperiod) to prevent trapping of heat inside the cup. Mortality was assessed 3 days after treatment of the plants.

[3] = test system: rice green leafhopper (nephotettix virescens); assay: Rice green leafhopper on sprayed rice seedlings; conditions: 300 ppm, adults, after 72 hours
Method: II.12 Rice Green Leafhopper (nephotettix virescens)
Rice seedlings were cleaned and washed 24 hours before spraying. The active compounds were formulated in 50:50 acetone:water (vol/vol), and 0.1% (vol/vol) surfactant (EL 620) was added. Potted rice seedlings were sprayed with 5 ml test solution, air dried, placed in cages and inoculated with 10 adults. Treated rice plants were kept at about 28-29° C. and relative humidity of about 50-60%. Percent mortality was recorded after 72 hours.

O=C1c2cc(-c3ccc(F)cc3F)ccc2S(=O)(=O)N1Cc1ccncc1 [I.20]
mortality in comparison with untreated controls [1]: over 75%

Cc1nccc(CN2C(=O)c3cc(-c4ccc(Cl)cc4C(F)(F)F)ccc3S2(=O)=O)c1C [I.35]
Lethality (cumulative) 0-5 h after treatment (adult female rats): 0
Lethality (cumulative) 1 d after treatment (adult female rats): 0
Lethality (cumulative) 2 d after treatment (adult female rats): 0
Lethality (cumulative) 7 d after treatment (adult female rats): 0
Lethality (cumulative) 14 d after treatment (adult female rats): 2

O=C1c2cc(-c3ccc(F)cc3F)ccc2S(=O)(=O)N1Cc1ccnc2cc(C(F)(F)F)ccc12 [I.28]
mortality in comparison with untreated controls [2]: over 75%

COc1cc(CN2C(=O)c3cc(-c4ccc(F)cc4F)ccc3S2(=O)=O)ccn1 [I.19]
mortality in comparison with untreated controls [3]: over 75%

Cc1nccc(CN2C(=O)c3cc(-c4ccc(C(F)(F)F)cc4Cl)ccc3S2(=O)=O)c1C [I.34]
Lethality (cumulative) 0-5 h after treatment (adult female rats): 0
Lethality (cumulative) 1 d after treatment (adult female rats): 0
Lethality (cumulative) 2 d after treatment (adult female rats): 0
Lethality (cumulative) 7 d after treatment (adult female rats): 0
Lethality (cumulative) 14 d after treatment (adult female rats): 1
